{"source": "PubChem BioAssay (NCI)", "assay_in_all_cases": "inhibition of tumour cell growth, NCI panel, 384-well format", "key": {"NCI-H23 lung": {"system": "NCI-H23 lung"}, "NCI-H322M lung": {"system": "NCI-H322M lung"}, "NCI-H460 NSCLC": {"system": "NCI-H460 NSCLC"}, "NCI-H522 lung": {"system": "NCI-H522 lung"}, "NCI/ADR-RES ovarian": {"system": "NCI/ADR-RES ovarian"}, "OVCAR-3 ovarian": {"system": "OVCAR-3 ovarian"}, "OVCAR-4 ovarian": {"system": "OVCAR-4 ovarian"}, "OVCAR-5 ovarian": {"system": "OVCAR-5 ovarian"}, "OVCAR-8 ovarian": {"system": "OVCAR-8 ovarian"}, "PC-3 prostate": {"system": "PC-3 prostate"}, "RPMI-8226 leukemia": {"system": "RPMI-8226 leukemia"}, "RXF 393 renal": {"system": "RXF 393 renal"}, "SF-268 CNS": {"system": "SF-268 CNS"}, "SF-295 CNS": {"system": "SF-295 CNS"}, "SF-539 CNS": {"system": "SF-539 CNS"}, "SK-MEL-2 melanoma": {"system": "SK-MEL-2 melanoma"}, "SK-MEL-28 melanoma": {"system": "SK-MEL-28 melanoma"}, "SK-MEL-5 melanoma": {"system": "SK-MEL-5 melanoma"}, "SK-OV-3 ovarian": {"system": "SK-OV-3 ovarian"}, "SN12C renal": {"system": "SN12C renal"}, "SNB-19 CNS": {"system": "SNB-19 CNS"}, "SNB-75 CNS": {"system": "SNB-75 CNS"}, "SR leukemia": {"system": "SR leukemia"}, "SW-620 colon": {"system": "SW-620 colon"}, "T-47D breast": {"system": "T-47D breast"}, "TK-10 renal": {"system": "TK-10 renal"}, "U251 glioblastoma": {"system": "U251 glioblastoma"}, "UACC-257 melanoma": {"system": "UACC-257 melanoma"}, "UACC-62 melanoma": {"system": "UACC-62 melanoma"}, "UO-31 renal": {"system": "UO-31 renal"}}, "note": "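GI50 = concentration required for 50% inhibition of growth. TGI denotes the concentration required for complete inhibition of growth.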", "data": [{"compound": "Cn1ncc2cc(-c3cnc(N)c(Cl)c3N3CCC4(CCNC4=O)CC3)ccc21", "values": [{"measurement": "GI50", "setting": "NCI-H23 lung", "result": 34.2, "unit": "µM"}, {"measurement": "TGI", "setting": "NCI-H23 lung", "result": "> 80.3", "unit": "µM"}, {"measurement": "GI50", "setting": "NCI-H322M lung", "result": 47.6, "unit": "µM"}, {"measurement": "TGI", "setting": "NCI-H322M lung", "result": "> 100", "unit": "µM"}, {"measurement": "GI50", "setting": "NCI-H460 NSCLC", "result": 35.9, "unit": "µM"}, {"measurement": "TGI", "setting": "NCI-H460 NSCLC", "result": "> 100", "unit": "µM"}, {"measurement": "GI50", "setting": "NCI-H522 lung", "result": 20.3, "unit": "µM"}, {"measurement": "TGI", "setting": "NCI-H522 lung", "result": "> 100", "unit": "µM"}, {"measurement": "GI50", "setting": "NCI/ADR-RES ovarian", "result": 31.4, "unit": "µM"}, {"measurement": "TGI", "setting": "NCI/ADR-RES ovarian", "result": "> 83.3", "unit": "µM"}, {"measurement": "GI50", "setting": "OVCAR-3 ovarian", "result": 23.5, "unit": "µM"}, {"measurement": "TGI", "setting": "OVCAR-3 ovarian", "result": "> 100", "unit": "µM"}, {"measurement": "GI50", "setting": "OVCAR-4 ovarian", "result": 97.1, "unit": "µM"}, {"measurement": "TGI", "setting": "OVCAR-4 ovarian", "result": "> 100", "unit": "µM"}, {"measurement": "GI50", "setting": "OVCAR-5 ovarian", "result": 51, "unit": "µM"}, {"measurement": "TGI", "setting": "OVCAR-5 ovarian", "result": "> 100", "unit": "µM"}, {"measurement": "GI50", "setting": "OVCAR-8 ovarian", "result": 34.8, "unit": "µM"}, {"measurement": "TGI", "setting": "OVCAR-8 ovarian", "result": "> 100", "unit": "µM"}, {"measurement": "GI50", "setting": "PC-3 prostate", "result": 28.3, "unit": "µM"}, {"measurement": "TGI", "setting": "PC-3 prostate", "result": "> 96.5", "unit": "µM"}, {"measurement": "GI50", "setting": "RPMI-8226 leukemia", "result": 3.6, "unit": "µM"}, {"measurement": "TGI", "setting": "RPMI-8226 leukemia", "result": 27.6, "unit": "µM"}, {"measurement": "GI50", "setting": "RXF 393 renal", "result": 18.6, "unit": "µM"}, {"measurement": "TGI", "setting": "RXF 393 renal", "result": 42.9, "unit": "µM"}, {"measurement": "GI50", "setting": "SF-268 CNS", "result": 41.9, "unit": "µM"}, {"measurement": "TGI", "setting": "SF-268 CNS", "result": "> 100", "unit": "µM"}, {"measurement": "GI50", "setting": "SF-295 CNS", "result": 46.1, "unit": "µM"}, {"measurement": "TGI", "setting": "SF-295 CNS", "result": "> 100", "unit": "µM"}, {"measurement": "GI50", "setting": "SF-539 CNS", "result": 48.6, "unit": "µM"}, {"measurement": "TGI", "setting": "SF-539 CNS", "result": "> 100", "unit": "µM"}, {"measurement": "GI50", "setting": "SK-MEL-2 melanoma", "result": 17.6, "unit": "µM"}, {"measurement": "TGI", "setting": "SK-MEL-2 melanoma", "result": 47.1, "unit": "µM"}, {"measurement": "GI50", "setting": "SK-MEL-28 melanoma", "result": 39.6, "unit": "µM"}, {"measurement": "TGI", "setting": "SK-MEL-28 melanoma", "result": "> 100", "unit": "µM"}, {"measurement": "GI50", "setting": "SK-MEL-5 melanoma", "result": 21.2, "unit": "µM"}, {"measurement": "TGI", "setting": "SK-MEL-5 melanoma", "result": 48.7, "unit": "µM"}, {"measurement": "GI50", "setting": "SK-OV-3 ovarian", "result": 29.9, "unit": "µM"}, {"measurement": "TGI", "setting": "SK-OV-3 ovarian", "result": "> 93.3", "unit": "µM"}, {"measurement": "GI50", "setting": "SN12C renal", "result": 48.2, "unit": "µM"}, {"measurement": "TGI", "setting": "SN12C renal", "result": "> 100", "unit": "µM"}, {"measurement": "GI50", "setting": "SNB-19 CNS", "result": 63.1, "unit": "µM"}, {"measurement": "TGI", "setting": "SNB-19 CNS", "result": "> 100", "unit": "µM"}, {"measurement": "GI50", "setting": "SNB-75 CNS", "result": 58.3, "unit": "µM"}, {"measurement": "TGI", "setting": "SNB-75 CNS", "result": "> 100", "unit": "µM"}, {"measurement": "GI50", "setting": "SR leukemia", "result": 8.79, "unit": "µM"}, {"measurement": "TGI", "setting": "SR leukemia", "result": 21.7, "unit": "µM"}, {"measurement": "GI50", "setting": "SW-620 colon", "result": 3.59, "unit": "µM"}, {"measurement": "TGI", "setting": "SW-620 colon", "result": 17.5, "unit": "µM"}, {"measurement": "GI50", "setting": "T-47D breast", "result": 21.5, "unit": "µM"}, {"measurement": "TGI", "setting": "T-47D breast", "result": "> 96.1", "unit": "µM"}, {"measurement": "GI50", "setting": "TK-10 renal", "result": 38.2, "unit": "µM"}, {"measurement": "TGI", "setting": "TK-10 renal", "result": "> 100", "unit": "µM"}, {"measurement": "GI50", "setting": "U251 glioblastoma", "result": 21.3, "unit": "µM"}, {"measurement": "TGI", "setting": "U251 glioblastoma", "result": "> 100", "unit": "µM"}, {"measurement": "GI50", "setting": "UACC-257 melanoma", "result": 15.4, "unit": "µM"}, {"measurement": "TGI", "setting": "UACC-257 melanoma", "result": 31.8, "unit": "µM"}, {"measurement": "GI50", "setting": "UACC-62 melanoma", "result": 33.2, "unit": "µM"}, {"measurement": "TGI", "setting": "UACC-62 melanoma", "result": 97.6, "unit": "µM"}, {"measurement": "GI50", "setting": "UO-31 renal", "result": 32.3, "unit": "µM"}, {"measurement": "TGI", "setting": "UO-31 renal", "result": "> 100", "unit": "µM"}]}]}
